Experiments:
ZIKV [1] = assay: ZIKV reporter assay (luciferase-expressing ZIKV PAN1 Nluc in Huh7 cells); type: cell-based; conditions: Zika virus, Huh-7, Huh7, MOI 0.2, 72 hpi
Protocol: The initial screening for ZIKV was performed using the in-house developed infectious ZIKV reporter expressing Nanoluc (ZIKV PAN1 Nluc) (see details in SI). Briefly, 1.5 × 10^4 Huh7 cells per well were seeded in 96 well plates. Next day, cells were inoculated with the ZIKV reporter at a multiplicity of infection (MOI) of 0.2 in infection medium (MEM medium supplemented with 1% FBS, 100 IU streptomycin/penicillin per mL, 1 mM sodium pyruvate and 10 mM HEPES). After 2 h, the inoculum was replaced with post-infection medium (MEM medium supplemented with 5% FBS, 100 IU streptomycin/penicillin per mL, 1 mM sodium pyruvate and 10 mM HEPES) containing compound of interest (10 µM). We used the flavivirus NS5 MTase inhibitor NSC12155^13 (10 µM) and the NS5 RdRp inhibitor NITD008^12 (1 µM) as positive controls for inhibition or 0.05% DMSO as vehicle control. Seventy-two hours post-infection (hpi), the cells were lysed with 50 µL 1× luciferase lysis buffer (Promega, Madison, WI, USA), incubated 10 min at room temp and stored at −80 °C. Thirty-five µL of lysed cells were transferred to a white 96-well plate and combined with 35 µL Nano-Glo® luciferase assay substrate (Promega) diluted 1:50 in Nano-Glo® luciferase assay buffer (Promega). The reaction was incubated for 2 min and luminescence readings were acquired using a Neo 2 plate reader (BioTek, Winooski, VT, USA). Percent inhibition was calculated in GraphPad Prism (San Diego, CA, USA) normalizing the luciferase signal to infected cells treated with DMSO (0% inhibition) and uninfected cells treated with DMSO (100% inhibition). EC50 values were calculated in GraphPad Prism using data obtained from dose-response experiments. For compounds 1 and 8, a range of concentrations between 0.05 and 15 µM were used. For compounds 11, 14, 23 and NSC12155, we used concentrations from 0.005 to 90 µM and 0.002 to 45 µM for NITD008.

ZIKV [2] = assay: ZIKV titer-reduction assay (plaque assay); type: cell-based, Zika virus; conditions: Huh7, MOI 0.2, 72 hpi; for inhibition at 1.5 µM / inhibition at 8.5 µM / EC50 / EC90: Zika virus; for inhibition at 1.5 µM / inhibition at 8.5 µM: Huh-7, 72 h; for EC50 / EC90: Huh-7
Protocol: Selected compounds were validated at 8.5 µM or 1.5 µM (for compounds considered toxic at higher concentrations) using titer-reduction assays. Huh7 cells (1.5 × 10^5 per well) were plated in 24-well plates. Next day, the cells were inoculated with ZIKV or DENV (MOI 0.2 or 0.05, respectively) and two hours later, the inoculum was replaced with post-infection medium containing compound of interest at 8.5 µM or 1.5 µM. Seventy-two hpi, supernatants from infected and treated cells were collected and viral titers were measured by plaque assay. To visualize plaques, confluent Vero cells in 24-well plates were inoculated with 1:10 serial dilutions of supernatants. After two hours, the inoculum was retired and replaced with 800 µL of overlay medium (MEM medium containing 1.3% methylcellulose, 2% FBS, 100 IU streptomycin/penicillin per mL and 10 mM HEPES). After 5 days (7 days for DENV), cells were washed with PBS, fixed with 2% formaldehyde, and stained using 0.5% crystal violet in 25% methanol. Infectious virus titer (pfu/mL) was determined using the following formula: number of plaques × dilution factor × (1/inoculum volume (mL)). Viral titers were normalized with DMSO-treated and infected cells (0% inhibition). The limit of detection was 200 pfu/mL (100% inhibition). […] Dose-response assays (Figure S4, Panels B and C) were performed for selected compounds using titer-reduction assays. We used a concentration range of 0.5 to 15 µM for all selected compounds except for compound 14 (range of 0.1–3 µM). Pfu/mL were normalized as mentioned for single-dose response experiment using the values for DMSO-treated and infected cells (0% inhibition) and the limit of detection value (200 pfu/mL) as 100% inhibition. Dose-response curves were built in GraphPad Prism and EC50 values were obtained from those curves.

[3] = Cell viability assay (MTS); type: cell-based; conditions: human, non-infected Huh7 cells; for viability at 10 µM: normalized to DMSO; for CC50 at 72 h: Huh7 cells
Protocol: Cell viability assays for non-infected Huh7 cells treated with the testing compounds (in-house library), control compounds (NITD008, RDV) and DMSO were performed in parallel with the antiviral screening. After 3 or 5 days of treatment, depending upon the experiment, cell viability was evaluated using the MTS-based tetrazolium reduction CellTiter 96 Aqueous Non-Radioactive cell proliferation assay (Promega). Treatment was retired from the wells and the cells incubated with MTS diluted 1:10 in MEM medium supplemented with 10% FBS. Absorbance was measured at 490 nm wavelength. Readings were normalized with DMSO-treated cells (100%) and expressed as % viability. For dose-response experiments, we used concentrations between 0.01 and 90 µM and dose-response curves and CC50 were calculated using GraphPad Prism.

Row | SMILES | inhibition at 10 µM (ZIKV [1]) [%] | inhibition at 1.5 µM (ZIKV [2]) [%] | viability at 10 µM [3] [%] | Titer Reduction Assay % at 8.5 µM (ZIKV [2]; 8.5 µM) | inhibition at 8.5 µM (ZIKV [2]; 8.5 µM) [%] | EC50 (ZIKV [2]) [µM] | EC90 (ZIKV [2]) [µM] | CC50 at 72 h [3] [µM] | EC50 (ZIKV [1]) [µM]
1 | Clc1cccc(CNc2ncnc3c2ccn3Cc2ccc3nc(Cl)ccc3c2)c1 [Compound 16, N-(3-Chlorobenzyl)-7-((2-chloroquinolin-6-yl)methyl)-7H-pyrrolo[2,3-d]pyrimidin-4-amine] | 95 | 10 | 34 |  |  |  |  |  | 
2 | FC(F)(F)c1cccc(Cn2ccc3c(NCc4cccc(Cl)c4)ncnc32)c1 [Compound 9, N-(3-Chlorobenzyl)-7-(3-(trifluoromethyl)benzyl)-7H-pyrrolo[2,3-d]pyrimidin-4-amine] | 92 |  | 61 | toxic |  |  |  |  | 
3 | O=[N+]([O-])c1ccc(Cn2ccc3c(NCc4cccc(Cl)c4Cl)ncnc32)cc1 [Compound 21, N-(2,3-Dichlorobenzyl)-7-(4-nitrobenzyl)-7H-pyrrolo[2,3-d]pyrimidin-4-amine] | 67 |  | 77 |  | 91 |  |  |  | 
4 | CS(=O)(=O)c1ccc(Cn2ccc3c(NCc4cccc(Cl)c4)ncnc32)cc1 [Compound 7, N-(3-Chlorobenzyl)-7-(4-(methylsulfonyl)benzyl)-7H-pyrrolo[2,3-d]pyrimidin-4-amine] | 98 | 69 | 39 |  |  |  |  |  | 
5 | N#Cc1ccc(Cn2cnc3c(NCc4cccc(Cl)c4)ncnc32)cc1 [Compound 30, 4-((6-((3-Chlorobenzyl)amino)-9H-purin-9-yl)methyl)benzonitrile] | 68 |  | 94 |  | 93 | 7.12 | 12.4 | 49.3 | 
6 | Clc1cccc(CNc2ncnc3c2ccn3Cc2ccnc3ccccc23)c1 [Compound 14, N-(3-Chlorobenzyl)-7-(quinolin-4-ylmethyl)-7H-pyrrolo[2,3-d]pyrimidin-4-amine] | 100 | 94 | 48 |  |  | 1.1 | 2.28 | 5.67 | 0.93
7 | Clc1cccc(CNc2ncnc3c2ccn3Cc2cccc3ccccc23)c1 [Compound 12, N-(3-Chlorobenzyl)-7-(naphthalen-1-ylmethyl)-7H-pyrrolo[2,3-d]pyrimidin-4-amine] | 84 |  | 73 |  | 66 |  |  |  | 
8 | Nc1ncnc2c1ccn2Cc1ccc([N+](=O)[O-])cc1 [Compound 17, 7-(4-Nitrobenzyl)-7H-pyrrolo[2,3-d]pyrimidin-4-amine] | 0 |  | 92 |  |  |  |  |  | 
9 | O=[N+]([O-])c1ccc(Cn2ccc3c(NCc4ccccc4)ncnc32)cc1 [Compound 18, N-Benzyl-7-(4-nitrobenzyl)-7H-pyrrolo[2,3-d]pyrimidin-4-amine] | 96 |  | 42 |  |  |  |  |  | 
10 | O=[N+]([O-])c1ccc(Cn2ncc3c(NCc4cccc(Cl)c4)ncnc32)cc1 [Compound 31, N-(3-Chlorobenzyl)-1-(4-nitrobenzyl)-1H-pyrazolo[3,4-d]pyrimidin-4-amine] | 83 |  | 96 |  | 86 |  |  |  | 
11 | O=[N+]([O-])c1ccccc1Cn1ccc2c(NCc3cccc(Cl)c3)ncnc21 [Compound 4, N-(3-Chlorobenzyl)-7-(2-nitrobenzyl)-7H-pyrrolo[2,3-d]pyrimidin-4-amine] | 44 |  | 93 |  | 82 |  |  |  | 
12 | FC(F)(F)c1ccc(Cn2ccc3c(NCc4cccc(Cl)c4)ncnc32)cc1 [Compound 6, N-(3-Chlorobenzyl)-7-(4-(trifluoromethyl)benzyl)-7H-pyrrolo[2,3-d]pyrimidin-4-amine] | 85 |  | 62 |  | 83 |  |  |  | 
13 | N#Cc1ccc(Cn2ccc3c(NCc4cccc(Cl)c4)ncnc32)c2ccccc12 [Compound 15, 4-((4-((3-Chlorobenzyl)amino)-7H-pyrrolo[2,3-d]pyrimidin-7-yl)methyl)-1-naphthonitrile] | 69 |  | 84 |  | 0 |  |  | 39.6 | 
14 | O=[N+]([O-])c1ccc(Cn2ccc3c(NCc4ccc(Cl)cc4)ncnc32)cc1 [Compound 20, N-(4-Chlorobenzyl)-7-(4-nitrobenzyl)-7H-pyrrolo[2,3-d]pyrimidin-4-amine] | 93 | 37 | 49 |  |  |  |  |  | 
15 | O=[N+]([O-])c1ccc(Cn2ccc3c(NCc4cccc5ccccc45)ncnc32)cc1 [Compound 24, N-(Naphthalen-1-ylmethyl)-7-(4-nitrobenzyl)-7H-pyrrolo[2,3-d]pyrimidin-4-amine] | 94 | 13 | 44 |  |  |  |  |  | 
16 | Clc1cccc(CNc2ncnc3c2ccn3Cc2ccccc2)c1 [Compound 3, 7-Benzyl-N-(3-chlorobenzyl)-7H-pyrrolo[2,3-d]pyrimidin-4-amine] | 42 |  | 90 |  | 68 |  |  |  | 
17 | Clc1cccc(CNc2ncnc3c2ccn3Cc2ccc3ccccc3c2)c1 [Compound 13, N-(3-Chlorobenzyl)-7-(naphthalen-2-ylmethyl)-7H-pyrrolo[2,3-d]pyrimidin-4-amine] | 75 | 18 | 45 |  |  |  |  |  | 
18 | Cc1cc(N)c2cc(NC(=O)Nc3ccc4nc(C)cc(N)c4c3)ccc2n1 [NSC 12155, reference compound] | 68 | 37 | 70 |  | 72 | 7.34 | 14.1 | 23 | 2.18
19 | N#Cc1ccc(Cn2ccc3c(NCc4ccccc4Cl)ncnc32)cc1 [Compound 26, 4-((4-((2-Chlorobenzyl)amino)-7H-pyrrolo[2,3-d]pyrimidin-7-yl)methyl)benzonitrile] | 58 |  | 76 |  |  |  |  |  | 
20 | N#Cc1ccc(Cn2ccc3c(NCc4cccc(Cl)c4Cl)ncnc32)cc1 [Compound 27, 4-((4-((2,3-Dichlorobenzyl)amino)-7H-pyrrolo[2,3-d]pyrimidin-7-yl)methyl)benzonitrile] | 71 |  | 78 |  |  |  |  |  | 
21 | Cc1cccc(CNc2ncnc3c2ccn3Cc2ccc(C#N)cc2)c1 [Compound 25, 4-((4-((3-Methylbenzyl)amino)-7H-pyrrolo[2,3-d]pyrimidin-7-yl)methyl)benzonitrile] | 84 |  | 33 |  |  |  |  |  | 
22 | N#Cc1ccc(Cn2ccc3c(NCc4cc(Cl)ccc4Cl)ncnc32)cc1 [Compound 28, 4-((4-((2,5-Dichlorobenzyl)amino)-7H-pyrrolo[2,3-d]pyrimidin-7-yl)methyl)benzonitrile] | 74 |  | 48 |  |  |  |  |  | 
